{"source": "patent US20100267561A1", "about": "“HERBICIDAL PYRIDAZINONE DERIVATIVES” (priority 2007, published 2010)", "type_in_all_cases": "in vivo", "key": {"[1]": {"system": "barnyardgrass (Echinochloa crus-galli)", "assay": "Test A pre-/postemergence plant response", "conditions": "Echinochloa crus-galli, 240 h, read-out: Plant response rating, Barnyardgrass; for pest or weed control at 125 g/ha: 125 g ai/ha; for pest or weed control at 500 g/ha: 500 g ai/ha", "how_it_was_run": "(§1)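 Seeds were planted in blended loam soil and sand, then treated preemergence by directed soil spray. At that time, emerged plants (one- to two-leaf, 2–10 cm) received postemergence applications of the same surfactant-containing formulation. Injury was assessed visually on a 0–100 scale after approximately 10 days.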"}, "[2]": {"system": "corn (Zea mays)", "assay": "Test A pre-/postemergence plant response", "conditions": "Zea mays, 240 h; for Corn plant response rating (crop injury, 0 = no effect, 100 = complete kill) at 125 g/ha: 125 g ai/ha; for Corn plant response rating (crop injury, 0 = no effect, 100 = complete kill) at 500 g/ha: 500 g ai/ha", "how_it_was_run": "as §1"}, "[3]": {"system": "giant foxtail (Setaria faberi)", "assay": "Test A pre-/postemergence plant response", "conditions": "Setaria faberi, 240 h, read-out: Plant response rating, Foxtail, Giant; for pest or weed control at 125 g/ha: 125 g ai/ha; for pest or weed control at 500 g/ha: 500 g ai/ha", "how_it_was_run": "as §1"}, "[4]": {"system": "large crabgrass (Digitaria sanguinalis)", "assay": "Test A pre-/postemergence plant response", "conditions": "Digitaria sanguinalis, 240 h, read-out: Plant response rating, Crabgrass, Large; for pest or weed control at 125 g/ha: 125 g ai/ha; for pest or weed control at 500 g/ha: 500 g ai/ha", "how_it_was_run": "as §1"}, "[5]": {"system": "morningglory (Ipomoea coccinea)", "assay": "Test A pre-/postemergence plant response", "how_it_was_run": "as §1"}, "[6]": {"system": "pigweed (Amaranthus retroflexus)", "assay": "Test A pre-/postemergence plant response", "conditions": "Amaranthus retroflexus, 240 h, read-out: Plant response rating, Pigweed; for pest or weed control at 125 g/ha: 125 g ai/ha; for pest or weed control at 500 g/ha: 500 g ai/ha", "how_it_was_run": "as §1"}, "[7]": {"system": "velvetleaf (Abutilon theophrasti)", "assay": "Test A pre-/postemergence plant response", "how_it_was_run": "as §1"}, "[8]": {"system": "wheat (Triticum aestivum)", "assay": "Test A pre-/postemergence plant response", "conditions": "Triticum aestivum, 240 h, read-out: Plant response rating, Wheat; for plant injury at 125 g/ha: 125 g ai/ha; for plant injury at 500 g/ha: 500 g ai/ha", "how_it_was_run": "as §1"}, "[9]": {"system": "canarygrass (Phalaris minor)", "assay": "Test B postemergence plant response", "conditions": "for Plant response rating, Canarygrass: Postemergence", "how_it_was_run": "(§2)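 Scoring: 0 means no effect and 100 complete control, judged by eye against controls after 13–15 days under greenhouse conditions following postemergence application at 2–18 cm plant height.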"}, "[10]": {"system": "chickweed (Stellaria media)", "assay": "Test B postemergence plant response", "conditions": "for Plant response rating, Chickweed: Postemergence", "how_it_was_run": "as §2"}, "[11]": {"system": "windgrass (Apera spica-venti)", "assay": "Test B postemergence plant response", "conditions": "for Plant response rating, Windgrass: Postemergence", "how_it_was_run": "as §2"}, "[12]": {"system": "winter barley (Hordeum vulgare)", "assay": "Test B postemergence plant response", "conditions": "for Plant response rating, Barley: Postemergence, scale 0 to 100, 0 no effect, 100 complete control", "how_it_was_run": "as §2"}, "[13]": {"system": "barnyardgrass (Echinochloa crus-galli)", "assay": "Test B flooded paddy test plant response", "conditions": "Echinochloa crus-galli, read-out: Plant response rating, Barnyardgrass", "how_it_was_run": "(§3)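 2-leaf plants; pots flooded 3 cm above soil; compound added to paddy water; depth maintained. Greenhouse 13–15 d. Visual rating vs controls, 0 (no effect) to 100 (complete control); dash = no result.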"}, "[14]": {"system": "umbrella sedge (Cyperus difformis)", "assay": "Test B flooded paddy test plant response", "conditions": "Cyperus difformis, read-out: Plant response rating, Sedge, Umbrella", "how_it_was_run": "as §3"}, "[15]": {"conditions": "post-emergence, Postemergence, 0 to 100 scale, 0 no effect, 100 complete control"}, "[16]": {"conditions": "pre-emergence, Preemergence, 0 to 100 scale (0 no effect, 100 complete control)"}, "[17]": {"conditions": "Postemergence, 125 g ai/ha, 0 to 100 scale, 0 no effect, 100 complete control"}, "[18]": {"conditions": "Postemergence, 500 g ai/ha, 0 to 100 scale, 0 no effect, 100 complete control"}, "[19]": {"conditions": "Preemergence, 125 g ai/ha, 0 to 100 scale (0 no effect, 100 complete control)"}, "[20]": {"conditions": "Preemergence, 500 g ai/ha, 0 to 100 scale (0 no effect, 100 complete control)"}, "[21]": {"conditions": "8 g ai/ha, postemergence, 0-100 scale"}, "[22]": {"conditions": "31 g ai/ha, scale 0 to 100, 0 no effect, 100 complete control"}, "[23]": {"conditions": "62 g ai/ha, scale 0 to 100, 0 no effect, 100 complete control"}, "[24]": {"conditions": "Flood (flooded paddy test), 62 g ai/ha, scale 0 to 100, 0 no effect, 100 complete control"}, "[25]": {"conditions": "Flood (flooded paddy test), 125 g ai/ha, scale 0 to 100, 0 no effect, 100 complete control"}, "[26]": {"conditions": "Flood (flooded paddy test), 250 g ai/ha, scale 0 to 100, 0 no effect, 100 complete control"}, "[27]": {"conditions": "Flood, 31 g ai/ha, scale 0 to 100"}}, "note": "Where two headings read alike, the source gives them in different places.", "data": [{"smiles": "CCc1c(C)c(-c2ccc(Cl)cc2)nn1-c1c(O)cnn(C)c1=O", "note": "[Compound 26, 4-[3-(4-chlorophenyl)-5-ethyl-4-methyl-1H-pyrazol-1-yl]-5-hydroxy-2-methyl-3(2H)-pyridazinone]", "values": [{"measurement": "pest or weed control at 125 g/ha", "setting": "[1]; [15]", "value": 100, "unit": "%"}, {"measurement": "pest or weed control at 500 g/ha", "setting": "[1]; [15]", "value": 100, "unit": "%"}, {"measurement": "pest or weed control at 125 g/ha", "setting": "[1]; [16]", "value": 100, "unit": "%"}, {"measurement": "pest or weed control at 500 g/ha", "setting": "[1]; [16]", "value": 100, "unit": "%"}, {"measurement": "Corn plant response rating (crop injury, 0 = no effect, 100 = complete kill) at 125 g/ha", "setting": "[2]; [15]", "value": 60, "unit": "%"}, {"measurement": "Corn plant response rating (crop injury, 0 = no effect, 100 = complete kill) at 500 g/ha", "setting": "[2]; [15]", "value": 100, "unit": "%"}, {"measurement": "Corn plant response rating (crop injury, 0 = no effect, 100 = complete kill) at 125 g/ha", "setting": "[2]; [16]", "value": 50, "unit": "%"}, {"measurement": "Corn plant response rating (crop injury, 0 = no effect, 100 = complete kill) at 500 g/ha", "setting": "[2]; [16]", "value": 90, "unit": "%"}, {"measurement": "pest or weed control at 125 g/ha", "setting": "[3]; [15]", "value": 90, "unit": "%"}, {"measurement": "pest or weed control at 500 g/ha", "setting": "[3]; [15]", "value": 100, "unit": "%"}, {"measurement": "pest or weed control at 125 g/ha", "setting": "[3]; [16]", "value": 100, "unit": "%"}, {"measurement": "pest or weed control at 500 g/ha", "setting": "[3]; [16]", "value": 100, "unit": "%"}, {"measurement": "pest or weed control at 125 g/ha", "setting": "[4]; [15]", "value": 80, "unit": "%"}, {"measurement": "pest or weed control at 500 g/ha", "setting": "[4]; [15]", "value": 100, "unit": "%"}, {"measurement": "pest or weed control at 125 g/ha", "setting": "[4]; [16]", "value": 90, "unit": "%"}, {"measurement": "pest or weed control at 500 g/ha", "setting": "[4]; [16]", "value": 100, "unit": "%"}, {"measurement": "Plant response rating, Morningglory", "setting": "[5]; [17]", "value": 0}, {"measurement": "Plant response rating, Morningglory", "setting": "[5]; [18]", "value": 20}, {"measurement": "Plant response rating, Morningglory", "setting": "[5]; [19]", "value": 0}, {"measurement": "Plant response rating, Morningglory", "setting": "[5]; [20]", "value": 0}, {"measurement": "pest or weed control at 125 g/ha", "setting": "[6]; [15]", "value": 0, "unit": "%"}, {"measurement": "pest or weed control at 500 g/ha", "setting": "[6]; [15]", "value": 0, "unit": "%"}, {"measurement": "pest or weed control at 125 g/ha", "setting": "[6]; [16]", "value": 0, "unit": "%"}, {"measurement": "pest or weed control at 500 g/ha", "setting": "[6]; [16]", "value": 0, "unit": "%"}, {"measurement": "Plant response rating, Velvetleaf", "setting": "[7]; [17]", "value": 0}, {"measurement": "Plant response rating, Velvetleaf", "setting": "[7]; [18]", "value": 20}, {"measurement": "Plant response rating, Velvetleaf", "setting": "[7]; [19]", "value": 0}, {"measurement": "Plant response rating, Velvetleaf", "setting": "[7]; [20]", "value": 0}, {"measurement": "plant injury at 125 g/ha", "setting": "[8]; [15]", "value": 0, "unit": "%"}, {"measurement": "plant injury at 500 g/ha", "setting": "[8]; [15]", "value": 60, "unit": "%"}, {"measurement": "plant injury at 125 g/ha", "setting": "[8]; [16]", "value": 20, "unit": "%"}, {"measurement": "plant injury at 500 g/ha", "setting": "[8]; [16]", "value": 70, "unit": "%"}, {"measurement": "Canarygrass plant response rating", "setting": "[9]; [21]", "value": 10}, {"measurement": "Plant response rating, Canarygrass", "setting": "[9]; 16 g ai/ha, scale 0 to 100", "value": 10}, {"measurement": "Plant response rating, Canarygrass", "setting": "[9]; [22]", "value": 60}, {"measurement": "Chickweed plant response rating", "setting": "[10]; [21]", "value": 0}, {"measurement": "Plant response rating, Chickweed", "setting": "[10]; 16 g ai/ha, scale 0 to 100", "value": 0}, {"measurement": "Plant response rating, Chickweed", "setting": "[10]; [22]", "value": 0}, {"measurement": "Plant response rating, Chickweed", "setting": "[10]; [23]", "value": 0}, {"measurement": "Windgrass plant response rating", "setting": "[11]; [21]", "value": 50}, {"measurement": "Plant response rating, Windgrass", "setting": "[11]; 16 g ai/ha, scale 0 to 100", "value": 80}, {"measurement": "Plant response rating, Windgrass", "setting": "[11]; [23]", "value": 95}, {"measurement": "Barley plant response rating", "setting": "[12]; [21]", "value": 0}, {"measurement": "Plant response rating, Barley", "setting": "[12]; 16 g ai/ha", "value": 0}, {"measurement": "Plant response rating, Barley", "setting": "[12]; 31 g ai/ha", "value": 0}, {"measurement": "Plant response rating, Barley", "setting": "[12]; 62 g ai/ha", "value": 0}, {"measurement": "pest or weed control at 62 g/ha", "setting": "[13]; [24]", "value": 0, "unit": "%"}, {"measurement": "pest or weed control at 125 g/ha", "setting": "[13]; [25]", "value": 0, "unit": "%"}, {"measurement": "pest or weed control at 250 g/ha", "setting": "[13]; [26]", "value": 20, "unit": "%"}, {"measurement": "pest or weed control at 31 g/ha", "setting": "[13]; [27]", "value": 0, "unit": "%"}, {"measurement": "pest or weed control at 62 g/ha", "setting": "[14]; [24]", "value": 0, "unit": "%"}, {"measurement": "pest or weed control at 125 g/ha", "setting": "[14]; [25]", "value": 0, "unit": "%"}, {"measurement": "pest or weed control at 250 g/ha", "setting": "[14]; [26]", "value": 75, "unit": "%"}, {"measurement": "pest or weed control at 31 g/ha", "setting": "[14]; [27]", "value": 0, "unit": "%"}]}]}
